# Assay results: US9782428B2, “Method for generation of broadly neutralizing anti-pathogen antibodies” (Northeastern University, priority 2013, dated 2017)
# “Also recorded” adds a separate entry of the source.
# Columns and labels:
# [1] = tested on: Gs coupled protein receptor; conditions: dopamine at day 44 and day 62 plus inspiration of hyperoxic gas mixture; day 47 and day 65; vs untreated mice
# Procedure: 12 male wild type C57 B/6 mice 10-12 weeks of age are immunized as described in Example 1. At day 21, the mice are given an immune boost of 1 μg NP-OVA with adjuvant via intraperitoneal injection. At day 42, the mice are given an immune challenge of 1 μg NP-OVA without adjuvant via tail vein injection. […] Samples at 5 days and 23 days post immune challenge (i.e., day 47 and day 65 of the assay) will be subjected to ELISA measurement for NIP-25.
# [2] = tested on: germinal center B cells; test: Flow cytometric analysis of germinal center B cells from immunized mice treated with CGS-21680 (Experiments 1 and 3); format: in vivo
# Procedure: All mice were sacrificed on day 6.
# All mice were sacrificed on day 21.
# Flow cytometric analysis of germinal center B cells from Experiment 1 (gated as lymphocytes, B220+, Gl-7 positive, CD38 negative; FIGS. 10E and 10F) and Experiment 3 (B220 positive, Gl-7 hi, IgD-negative; FIG. 10D) was performed. The flow cytometric analysis was performed according to the protocol discussed in Example.
# [3] = tested on: resting B cells; test: In vitro class switch recombination IgM to IgG1 in resting B cells stimulated with anti-CD40 and IL-4; format: cell-based, mice; conditions: four days in culture; for class switching of IgM to IgG1: gated on B220+, vs untreated B cells
# Procedure: Female C57 B/6 mice were sacrificed and spleens harvested and generated into single cell suspensions. Lymphocytes were isolated using Ficoll separation (GE Healthcare) and interface layer was collected after centrifugation (1000×g for 10 minutes). Cells were FC Blocked as described above and then stained with CD43 FITC (clone S7) and then washed and stained with anti-FITC microbeads (Miltenyi) at 4° C. for 30 minutes. Cells were then depleted using magnetic separation autoMACS deplete(s) program (Miltenyi). The depleted fraction was used for experiments as these consist of resting B cells.
# B cells plated in a 24 well plate at 200,000 cells pre well with IMDM media, as described in Example 3 (1 ml media/well). B cells were then stimulated using anti-CD40 antibody (2.5 μg/ml clone IC-10 eBiosciences) and recombinant mouse IL-4 (10 ng/ml, R&D). […] All stimulating reagents were added at the seeding of the culture on day 0 and no other drugs were added thereafter.
# After four days in culture, amount of class switch to IgG1 was determined by flow cytometric analysis by staining with anti-mouse IgM, IgG1, and B220. Plots are all gated on B220+ cells (FIG. 8A-8F)
# [4] = Experiment 1, 5 subcutaneous injections 1 mg/kg days 4-6, sacrificed day 6
structure (smiles),measurement,setting,value
NCCc1ccc(O)c(O)c1 [dopamine],levels of NIP-25,[1],higher levels
CCNC(=O)[C@H]1O[C@@H](n2cnc3c(N)nc(NCCc4ccc(CCC(=O)O)cc4)nc32)[C@H](O)[C@@H]1O [CGS21680],amount of class switched NP-PE binding cells,[2]; [4],higher amount
same,proportion of class switched IgG1 germinal center B cells,[2]; [4],enhanced class switching
same,proportion of class switched IgG1 germinal center B cells,"[2]; Experiment 1, 5 subcutaneous injections 1 mg/kg days 4-6, sacrificed day 6, listed as CGS-21680",increased proportion
same,frequency of germinal center B cells,"[2]; Experiment 3, 1 mg/kg subcutaneous twice daily day 8-20, sacrificed day 21, compared to control",decrease
same,class switching of IgM to IgG1,[3]; 10 μM,has class switching
"CCNC(=O)[C@H]1O[C@@H](n2cnc3c(N)ncnc32)[C@H](O)[C@@H]1O [NECA, N-ethylcarboxyamidoadenosine]","class switching of IgM to IgG1, dependence on concentration","[3]; 100 nM, 1 μM, 10 μM",class switching increases as the concentration of NECA increases
same,class switching of IgM to IgG1,[3]; 100 nM,increases the class switching; also recorded: has class switching
same,class switching of IgM to IgG1,[3]; 1 μM,has class switching
same,class switching of IgM to IgG1,[3]; 10 μM,has class switching
